Assay results taken from article PMC10098062 (Molecular Plant Pathology, 2023).

Biological target: SstF F299A (SFN-sensing transcription factor, LysR family) (Xanthomonas campestris, UniProt Q8PAP2, F299A)
Assay: biochemical

C[S+]([O-])CCCCN=C=S (stereo not shown) [SFN, Sulforaphane]
Kd: 143 µM
